Source: ChEMBL document CHEMBL1130958, “Templates for design of inhibitors for serine proteases: application of the program DOCK to the discovery of novel inhibitors for thrombin” (Bioorg Med Chem Lett, 1998)

Biological target: Prothrombin (Homo sapiens, UniProt P00734)
Assay: Dissociation constant was evaluated by competitive inhibition of alpha-thrombin using the method of Dixon enzyme assay.

SMILES | Ki
c1ccc(CN2CCN(Cc3ccccc3)CCN(Cc3ccccc3)CC2)cc1 | 410 µM
O=C(/N=N/c1ccccc1)NNc1ccccc1 | 1.7 µM
